Consider one compound from publication PMC5218480 (PLoS ONE, 2017).

The test system of the assay is MV-4-11 cells. Description: Gene expression microarray analysis (Affymetrix PrimeView) and GSEA. Particulars: MV-4-11 cells, 48 hours. The class given is cell-based, human. Set-up: RFU PODN (11730768_x_at) / Fold change /veh PODN (11730768_x_at) / RFU LINC00158 (11744669_a_at) / Fold change /veh LINC00158 (11744669_a_at) / RFU DUSP10 (11751237_a_at) / Fold change /veh DUSP10 (11751237_a_at) / RFU ID3 (11757404_x_at) / Fold change /veh ID3 (11757404_x_at) / RFU PLEKHG5 (11737974_s_at) / Fold change /veh PLEKHG5 (11737974_s_at) / RFU LRRC4B (11730491_at) / Fold change /veh LRRC4B (11730491_at) / RFU GIMAP4 (11747438_a_at) / Fold change /veh GIMAP4 (11747438_a_at) / RFU KRT8 (11758183_x_at) / Fold change /veh KRT8 (11758183_x_at) / RFU CNN1 (11734310_a_at) / Fold change /veh CNN1 (11734310_a_at) / RFU VPS37D (11726825_at) / Fold change /veh VPS37D (11726825_at) / RFU C10orf10 (11716522_x_at) / Fold change /veh C10orf10 (11716522_x_at) / RFU KIR2DL2 /// KIR2DL4 /// KIR2DL5A /// KIR2DL5B /// KIR2DS1 /// KIR2DS2 /// KIR2DS3 /// KIR2DS4 /// KIR3DL3 /// KIR3DL3 /// KIR3DS1 (11738374_at) / Fold change /veh KIR2DL2 /// KIR2DL4 /// KIR2DL5A /// KIR2DL5B /// KIR2DS1 /// KIR2DS2 /// KIR2DS3 /// KIR2DS4 /// KIR3DL3 /// KIR3DL3 /// KIR3DS1 (11738374_at) / RFU C1QL1 (11718748_at) / Fold change /veh C1QL1 (11718748_at) / RFU TMPRSS4 (11747572_a_at) / Fold change /veh TMPRSS4 (11747572_a_at) / RFU HAMP (11756126_x_at) / Fold change /veh HAMP (11756126_x_at) / RFU RNFT2 (11725882_a_at) / Fold change /veh RNFT2 (11725882_a_at) / RFU NR4A2 (11747474_a_at) / Fold change /veh NR4A2 (11747474_a_at) / RFU ABCC12 (11746883_a_at) / Fold change /veh ABCC12 (11746883_a_at) / RFU TMEM136 (11760407_x_at) / Fold change /veh TMEM136 (11760407_x_at) / RFU CLDN22 /// WWC2 (11732394_at) / Fold change /veh CLDN22 /// WWC2 (11732394_at) / RFU HLA-DPB1 (11760878_x_at) / Fold change /veh HLA-DPB1 (11760878_x_at) / RFU SPINT1 (11716480_a_at) / Fold change /veh SPINT1 (11716480_a_at) / RFU GAP43 (11754022_s_at) / Fold change /veh GAP43 (11754022_s_at) / RFU A4GNT (11735810_at) / Fold change /veh A4GNT (11735810_at) / RFU PRB3 (11715151_x_at) / Fold change /veh PRB3 (11715151_x_at) / RFU TUBB4B (11761932_at) / Fold change /veh TUBB4B (11761932_at) / RFU CAPN14 (11732068_a_at) / Fold change /veh CAPN14 (11732068_a_at) / RFU TMCC2 (11721928_a_at) / Fold change /veh TMCC2 (11721928_a_at) / RFU IRGQ (11745062_a_at) / Fold change /veh IRGQ (11745062_a_at) / RFU FAM174B (11720279_a_at) / Fold change /veh FAM174B (11720279_a_at) / RFU TMPRSS4 (11748680_a_at) / Fold change /veh TMPRSS4 (11748680_a_at) / RFU FAM212B (11763350_a_at) / Fold change /veh FAM212B (11763350_a_at) / RFU PLEKHG5 (11743358_a_at) / Fold change /veh PLEKHG5 (11743358_a_at) / RFU ZSCAN30 (11745921_a_at) / Fold change /veh ZSCAN30 (11745921_a_at) / RFU CMKLR1 (11741424_a_at) / Fold change /veh CMKLR1 (11741424_a_at) / RFU LOC101060620 /// MAPK8IP1 (11723275_at) / Fold change /veh LOC101060620 /// MAPK8IP1 (11723275_at) / RFU SPTSSB (11747773_x_at) / Fold change /veh SPTSSB (11747773_x_at) / RFU PRSS12 (11739890_at) / Fold change /veh PRSS12 (11739890_at) / RFU BIN1 (11741810_x_at) / Fold change /veh BIN1 (11741810_x_at) / RFU WNT11 (11732464_a_at) / Fold change /veh WNT11 (11732464_a_at) / RFU C10orf10 (11716521_a_at) / Fold change /veh C10orf10 (11716521_a_at) / RFU C5orf56 (11738089_at) / Fold change /veh C5orf56 (11738089_at) / RFU CYB561 (11721691_x_at) / Fold change /veh CYB561 (11721691_x_at) / RFU ANKRD19P (11752326_a_at) / Fold change /veh ANKRD19P (11752326_a_at) / RFU OR2T12 /// OR2T33 /// OR2T8 (11738714_s_at) / Fold change /veh OR2T12 /// OR2T33 /// OR2T8 (11738714_s_at) / RFU VCAN (11748164_a_at) / Fold change /veh VCAN (11748164_a_at) / RFU JSRP1 (11732532_at) / Fold change /veh JSRP1 (11732532_at) / RFU KRTAP10-11 (11738290_x_at) / Fold change /veh KRTAP10-11 (11738290_x_at) / RFU MYO3A (11730013_a_at) / Fold change /veh MYO3A (11730013_a_at) / RFU EBF3 (11725865_a_at) / Fold change /veh EBF3 (11725865_a_at) / RFU CAMK2N1 (11719241_x_at) / Fold change /veh CAMK2N1 (11719241_x_at) / RFU C5orf56 (11738088_a_at) / Fold change /veh C5orf56 (11738088_a_at) / RFU OLFML3 (11715873_a_at) / Fold change /veh OLFML3 (11715873_a_at) / RFU LOC100653217 /// NTM (11731650_a_at) / Fold change /veh LOC100653217 /// NTM (11731650_a_at) / RFU MAPK11 (11762145_a_at) / Fold change /veh MAPK11 (11762145_a_at) / RFU FIZ1 (11724087_x_at) / Fold change /veh FIZ1 (11724087_x_at) / RFU OASL (11726364_x_at) / Fold change /veh OASL (11726364_x_at) / RFU SOX15 (11748057_x_at) / Fold change /veh SOX15 (11748057_x_at) / RFU CD79A (11719716_a_at) / Fold change /veh CD79A (11719716_a_at) / RFU HIST1H1D (11736915_at) / Fold change /veh HIST1H1D (11736915_at) / RFU CASKIN2 (11723855_a_at) / Fold change /veh CASKIN2 (11723855_a_at) / RFU LOC730098 (11760151_x_at) / Fold change /veh LOC730098 (11760151_x_at) / RFU OR4N2 (11742367_at) / Fold change /veh OR4N2 (11742367_at) / RFU PRRT2 (11749266_a_at) / Fold change /veh PRRT2 (11749266_a_at) / RFU SNX32 (11753110_a_at) / Fold change /veh SNX32 (11753110_a_at) / RFU CDHR5 (11726645_a_at) / Fold change /veh CDHR5 (11726645_a_at) / RFU RCAN1 (11760418_a_at) / Fold change /veh RCAN1 (11760418_a_at) / RFU FAM167A (11723789_a_at) / Fold change /veh FAM167A (11723789_a_at) / RFU FAM26E (11764081_at) / Fold change /veh FAM26E (11764081_at) / RFU ISYNA1 (11749810_s_at) / Fold change /veh ISYNA1 (11749810_s_at) / RFU ACY1 (11761880_at) / Fold change /veh ACY1 (11761880_at) / RFU 11764098_at / Fold change /veh 11764098_at / RFU SAMD14 (11745864_x_at) / Fold change /veh SAMD14 (11745864_x_at) / RFU NPB (11741838_a_at) / Fold change /veh NPB (11741838_a_at) / RFU TMPRSS6 (11731388_a_at) / Fold change /veh TMPRSS6 (11731388_a_at) / RFU KRTAP10-2 (11738614_at) / Fold change /veh KRTAP10-2 (11738614_at) / RFU ARHGAP8 /// PRR5-ARHGAP8 (11727945_x_at) / Fold change /veh ARHGAP8 /// PRR5-ARHGAP8 (11727945_x_at) / RFU KRTAP5-7 /// NADSYN1 (11734609_at) / Fold change /veh KRTAP5-7 /// NADSYN1 (11734609_at) / RFU RASL12 (11751679_a_at) / Fold change /veh RASL12 (11751679_a_at) / RFU CDKN2B (11736163_a_at) / Fold change /veh CDKN2B (11736163_a_at) / RFU PRF1 (11729649_at) / Fold change /veh PRF1 (11729649_at) / RFU, ZNF638 /// ZNF638-IT1 / Fold change vs veh, ZNF638 /// ZNF638-IT1 / RFU, PANK3 / Fold change vs veh, PANK3 / RFU, SH3YL1 / Fold change vs veh, SH3YL1 / RFU, ZEB2 / Fold change vs veh, ZEB2 / RFU, NRIP1 / Fold change vs veh, NRIP1 / RFU, PTTG1IP / Fold change vs veh, PTTG1IP / RFU, CAPN2 / Fold change vs veh, CAPN2 / RFU, MED14 / Fold change vs veh, MED14 / RFU, SNORA58 / Fold change vs veh, SNORA58 / RFU, C1orf63 / Fold change vs veh, C1orf63 / RFU, LRRFIP1 / Fold change vs veh, LRRFIP1 / RFU, NDUFAF7 / Fold change vs veh, NDUFAF7 / RFU, SLC12A2 / Fold change vs veh, SLC12A2 / RFU, IBTK / Fold change vs veh, IBTK / RFU, ESF1 / Fold change vs veh, ESF1 / Fold change vs veh, TMEM50B / RFU, TAOK1 / Fold change vs veh, TAOK1 / RFU, ACBD3 / Fold change vs veh, ACBD3 / RFU, TMA16 / Fold change vs veh, TMA16 / RFU, RWDD3 / Fold change vs veh, RWDD3 / RFU, BCAT1 / Fold change vs veh, BCAT1 / RFU, EDEM3 / Fold change vs veh, EDEM3 / RFU, TMEM33 / Fold change vs veh, TMEM33 / RFU, WDR75 / Fold change vs veh, WDR75 / RFU, AHCTF1 / Fold change vs veh, AHCTF1 / RFU, TFRC / Fold change vs veh, TFRC / RFU, ZDHHC17 / Fold change vs veh, ZDHHC17 / RFU, NOM1 / Fold change vs veh, NOM1 / RFU, ARL8B / Fold change vs veh, ARL8B / RFU, ZBTB11 / Fold change vs veh, ZBTB11 / RFU, TAMM41 / Fold change vs veh, TAMM41 / RFU, KIAA1704 /// LOC100996395 / Fold change vs veh, KIAA1704 /// LOC100996395 / RFU, ING1 / Fold change vs veh, ING1 / RFU, TRMT61B / Fold change vs veh, TRMT61B / RFU, FUBP3 / Fold change vs veh, FUBP3 / RFU, TP53 / Fold change vs veh, TP53 / RFU, TNKS2 / Fold change vs veh, TNKS2 / RFU, ZFP14 / Fold change vs veh, ZFP14 / RFU, ACTR2 / Fold change vs veh, ACTR2 / RFU, PPP3R1 / Fold change vs veh, PPP3R1 / RFU, PIK3R1 / Fold change vs veh, PIK3R1 / RFU, HNRNPA1 / Fold change vs veh, HNRNPA1 / RFU, RNF170 / Fold change vs veh, RNF170 / RFU, ZNF28 / Fold change vs veh, ZNF28 / RFU, RNGTT / Fold change vs veh, RNGTT / RFU, OGT / Fold change vs veh, OGT / RFU, BRD1 / Fold change vs veh, BRD1 / RFU, MARS / Fold change vs veh, MARS / RFU, ZNF655 / Fold change vs veh, ZNF655 / RFU, FAHD1 / Fold change vs veh, FAHD1 / RFU, BDP1 / Fold change vs veh, BDP1 / RFU, LRRCC1 / Fold change vs veh, LRRCC1 / RFU, ARID1A / Fold change vs veh, ARID1A / RFU, ZNF146 / Fold change vs veh, ZNF146 / RFU, ZNF330 / Fold change vs veh, ZNF330 / RFU, GPN3 / Fold change vs veh, GPN3 / RFU, C9orf123 / Fold change vs veh, C9orf123 / RFU, N4BP2L2 / Fold change vs veh, N4BP2L2 / RFU, ARFIP1 / Fold change vs veh, ARFIP1 / RFU, FAM179B / Fold change vs veh, FAM179B / RFU, BCL10 / Fold change vs veh, BCL10 / RFU, UHRF1BP1L / Fold change vs veh, UHRF1BP1L / RFU, BET1 / Fold change vs veh, BET1 / RFU, CNOT2 / Fold change vs veh, CNOT2 / RFU, ZNF268 / Fold change vs veh, ZNF268 / Fold change vs veh, ZNF507 / RFU, DGCR2 / Fold change vs veh, DGCR2 / RFU, WDSUB1 / Fold change vs veh, WDSUB1 / Fold change vs veh, HSP90B1 /// MIR3652 / RFU, ADSS / Fold change vs veh, ADSS / RFU, GK / Fold change vs veh, GK / RFU, ZNF148 / Fold change vs veh, ZNF148 / RFU, TAF9 / Fold change vs veh, TAF9 / RFU, SLC1A5 / Fold change vs veh, SLC1A5 / RFU, SLMO2 / Fold change vs veh, SLMO2 / RFU, ABCC4 / Fold change vs veh, ABCC4 / RFU, LOC101060439 /// RAP1B / Fold change vs veh, LOC101060439 /// RAP1B / RFU, RFX7 / Fold change vs veh, RFX7 / RFU, GTPBP10 / Fold change vs veh, GTPBP10 / RFU, CNEP1R1 / Fold change vs veh, CNEP1R1 / RFU, BIVM-ERCC5 /// ERCC5 / Fold change vs veh, BIVM-ERCC5 /// ERCC5 / RFU, ILF3 / Fold change vs veh, ILF3 / RFU 11762660_at / Fold change /veh 11762660_at / RFU VCAN (11757783_s_at) / Fold change /veh VCAN (11757783_s_at) / RFU DDX43 (11728927_at) / Fold change /veh DDX43 (11728927_at) / RFU KRT8 (11758188_x_at) / Fold change /veh KRT8 (11758188_x_at) / RFU NKD1 (11759106_at) / Fold change /veh NKD1 (11759106_at) / RFU SRD5A1 (11742802_a_at) / Fold change /veh SRD5A1 (11742802_a_at) / RFU TPSAB1 /// TPSB2 (11721975_s_at) / Fold change /veh TPSAB1 /// TPSB2 (11721975_s_at) / RFU GSTM3 (11746129_a_at) / Fold change /veh GSTM3 (11746129_a_at) / RFU IL23R (11737362_x_at) / Fold change /veh IL23R (11737362_x_at) / RFU TMEM51 (11727254_a_at) / Fold change /veh TMEM51 (11727254_a_at) / RFU PIWIL2 (11732686_x_at) / Fold change /veh PIWIL2 (11732686_x_at) / RFU ORM1 (11744905_x_at) / Fold change /veh ORM1 (11744905_x_at) / RFU CCDC152 (11743942_at) / Fold change /veh CCDC152 (11743942_at) / RFU ECM1 (11717891_a_at) / Fold change /veh ECM1 (11717891_a_at) / RFU IL23R (11748794_a_at) / Fold change /veh IL23R (11748794_a_at) / RFU TNFAIP8L3 (11732012_x_at) / Fold change /veh TNFAIP8L3 (11732012_x_at) / RFU MBOAT4 (11741988_at) / Fold change /veh MBOAT4 (11741988_at) / RFU 11764193_at / Fold change /veh 11764193_at / RFU TMEM53 (11763286_at) / Fold change /veh TMEM53 (11763286_at) / RFU MAGEB2 (11727129_at) / Fold change /veh MAGEB2 (11727129_at) / RFU TMEM200A (11744735_a_at) / Fold change /veh TMEM200A (11744735_a_at) / RFU CCDC152 (11751479_a_at) / Fold change /veh CCDC152 (11751479_a_at) / RFU FAM211A (11726209_a_at) / Fold change /veh FAM211A (11726209_a_at) / RFU RGS16 (11746705_a_at) / Fold change /veh RGS16 (11746705_a_at) / RFU VCAN (11755009_s_at) / Fold change /veh VCAN (11755009_s_at) / RFU RHOB (11743442_s_at) / Fold change /veh RHOB (11743442_s_at) / RFU RGS16 (11720943_a_at) / Fold change /veh RGS16 (11720943_a_at) / RFU RGS16 (11720944_at) / Fold change /veh RGS16 (11720944_at) / RFU, VPS4B / Fold change vs veh, VPS4B / RFU, CREB1 / Fold change vs veh, CREB1 / RFU, DNAJC13 / Fold change vs veh, DNAJC13 / RFU, GNAQ / Fold change vs veh, GNAQ / RFU, CDK5R1 / Fold change vs veh, CDK5R1 / RFU, ZRANB3 / Fold change vs veh, ZRANB3 / RFU, CUL4A / Fold change vs veh, CUL4A / RFU, CCNY / Fold change vs veh, CCNY / RFU, UFL1 / Fold change vs veh, UFL1 / RFU, COG3 / Fold change vs veh, COG3 / RFU, DIAPH2 / Fold change vs veh, DIAPH2 / RFU, SKA2 / Fold change vs veh, SKA2 / RFU, AFF3 / Fold change vs veh, AFF3 / RFU, LMF1 / Fold change vs veh, LMF1 / RFU, IPO11 / Fold change vs veh, IPO11 / RFU, DFFB / Fold change vs veh, DFFB / RFU, FOXP1 / Fold change vs veh, FOXP1 / RFU, CARD8 / Fold change vs veh, CARD8 / RFU, STRN3 / Fold change vs veh, STRN3 / RFU, ADK / Fold change vs veh, ADK / RFU, RASSF2 / Fold change vs veh, RASSF2 / RFU, WIPF1 / Fold change vs veh, WIPF1 / RFU, LARP1B / Fold change vs veh, LARP1B / RFU, RASA1 / Fold change vs veh, RASA1 / RFU, RB1 / Fold change vs veh, RB1 / RFU, PPFIA1 / Fold change vs veh, PPFIA1 / RFU, MAT2A / Fold change vs veh, MAT2A / RFU, CCT5 / Fold change vs veh, CCT5 / RFU, WDR92 / Fold change vs veh, WDR92 / RFU, CUX1 / Fold change vs veh, CUX1 / RFU, TTC7A / Fold change vs veh, TTC7A / RFU, TMEM135 / Fold change vs veh, TMEM135 / RFU, DEPTOR / Fold change vs veh, DEPTOR / RFU, CPM / Fold change vs veh, CPM / RFU, DNAJB6 / Fold change vs veh, DNAJB6 / RFU, CACNA2D3 / Fold change vs veh, CACNA2D3 / RFU, DTX4 / Fold change vs veh, DTX4 / RFU, TFCP2 / Fold change vs veh, TFCP2 / RFU, GMCL1 /// GMCL1P1 / Fold change vs veh, GMCL1 /// GMCL1P1 / RFU, AEBP2 / Fold change vs veh, AEBP2 / RFU, SNHG1 /// SNORD22 /// SNORD25 /// SNORD26 /// SNORD27 /// SNORD28 /// SNORD29 /// SNORD31 / Fold change vs veh, SNHG1 /// SNORD22 /// SNORD25 /// SNORD26 /// SNORD27 /// SNORD28 /// SNORD29 /// SNORD31 / Fold change (Aza/veh), C12orf56 (ProbeSet 11735607_a_at) / Fold change (ACY-1035/veh), C12orf56 (ProbeSet 11735607_a_at) / Fold change (Aza/veh), FGFR1OP (ProbeSet 11751329_s_at) / Fold change (ACY-1035/veh), FGFR1OP (ProbeSet 11751329_s_at) / Fold change (Aza/veh), VPS36 (ProbeSet 11739960_a_at) / Fold change (ACY-1035/veh), VPS36 (ProbeSet 11739960_a_at) / RFU SYPL1 (11715823_x_at) / Fold change /veh SYPL1 (11715823_x_at) / RFU IGFBP7 (11715501_s_at) / Fold change /veh IGFBP7 (11715501_s_at) / RFU REEP3 (11722064_at) / Fold change /veh REEP3 (11722064_at) / RFU IGLL1 (11728026_x_at) / Fold change /veh IGLL1 (11728026_x_at): dose or concentration left out as unconfirmed.

Regarding `Nc1ccc(-c2cccs2)cc1NC(=O)c1ccc2c(c1)cc(C1CC1)n2CCN1CCOCC1` [ACY-1035], the “RFU 11764098_at” value was 18.10 RFU.
